Measured values taken from PubChem BioAssay (NCI).
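Test compounds were applied to cells in 96-well plates for 48 hours at 5 doses. TGI marks complete inhibition of growth.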

Assays:
Experiment in all cases: NCI anticancer screen, dose series, 48 h
786-0 renal = test system: 786-0 renal
A498 renal = test system: A498 renal
A549 NSCLC = test system: A549 NSCLC
ACHN renal = test system: ACHN renal
BT-549 breast = test system: BT-549 breast
CAKI-1 renal = test system: CAKI-1 renal
CCRF-CEM leukemia = test system: CCRF-CEM leukemia
COLO 205 colon = test system: COLO 205 colon
DU-145 prostate = test system: DU-145 prostate
EKVX NSCLC = test system: EKVX NSCLC
HCC-2998 colon = test system: HCC-2998 colon
HCT-116 colon = test system: HCT-116 colon
HCT-15 colon = test system: HCT-15 colon
HL-60(TB) leukemia = test system: HL-60(TB) leukemia
HOP-62 NSCLC = test system: HOP-62 NSCLC
HOP-92 NSCLC = test system: HOP-92 NSCLC
HS 578T breast = test system: HS 578T breast
HT29 colon = test system: HT29 colon
IGROV1 ovarian = test system: IGROV1 ovarian
K-562 leukemia = test system: K-562 leukemia
KM12 colon = test system: KM12 colon
LOX IMVI melanoma = test system: LOX IMVI melanoma
M14 melanoma = test system: M14 melanoma
MALME-3M melanoma = test system: MALME-3M melanoma
MCF7 breast = test system: MCF7 breast
MDA-MB-231 breast = test system: MDA-MB-231 breast
MDA-MB-435 = test system: MDA-MB-435
MDA-N = test system: MDA-N
MOLT-4 leukemia = test system: MOLT-4 leukemia
NCI-H23 lung = test system: NCI-H23 lung
NCI-H460 lung = test system: NCI-H460 lung
NCI-H522 lung = test system: NCI-H522 lung
NCI/ADR-RES ovarian = test system: NCI/ADR-RES ovarian
OVCAR-3 ovarian = test system: OVCAR-3 ovarian
OVCAR-4 ovarian = test system: OVCAR-4 ovarian
OVCAR-5 ovarian = test system: OVCAR-5 ovarian
OVCAR-8 ovarian = test system: OVCAR-8 ovarian
PC-3 prostate = test system: PC-3 prostate
RPMI-8226 leukemia = test system: RPMI-8226 leukemia
RXF 393 renal = test system: RXF 393 renal
SF-268 CNS = test system: SF-268 CNS
SF-295 CNS = test system: SF-295 CNS
SF-539 CNS = test system: SF-539 CNS
SK-MEL-2 melanoma = test system: SK-MEL-2 melanoma
SK-MEL-28 melanoma = test system: SK-MEL-28 melanoma
SK-MEL-5 melanoma = test system: SK-MEL-5 melanoma
SK-OV-3 ovarian = test system: SK-OV-3 ovarian
SN12C renal = test system: SN12C renal
SNB-19 CNS = test system: SNB-19 CNS
SNB-75 CNS = test system: SNB-75 CNS
SW-620 colon = test system: SW-620 colon
T-47D breast = test system: T-47D breast
TK-10 renal = test system: TK-10 renal
U251 CNS = test system: U251 CNS
UACC-257 melanoma = test system: UACC-257 melanoma
UACC-62 melanoma = test system: UACC-62 melanoma
UO-31 renal = test system: UO-31 renal

**Q.** `CCOC(=O)C1=C(C)NC(C)=C(C(=O)OCC)C1c1ccc(Cl)cc1` was tested. Which TGI (786-0 renal) did it give?
**A.** Its TGI is 26.5 µM.

**Q.** What about the TGI (A498 renal) of the same molecule?
**A.** Its TGI is 31.2 µM.

**Q.** What about the TGI (A549 NSCLC) of the same molecule?
**A.** The TGI was 34.3 µM.

**Q.** What about the TGI (ACHN renal) of the same molecule?
**A.** The TGI was 30.8 µM.

**Q.** What about the TGI (BT-549 breast) of the same molecule?
**A.** Its TGI is 32.7 µM.

**Q.** And the TGI (CAKI-1 renal)?
**A.** Its TGI is 30.7 µM.

**Q.** And the TGI (CCRF-CEM leukemia)?
**A.** The TGI was 28.3 µM.

**Q.** And the TGI (COLO 205 colon)?
**A.** Its TGI is 32.4 µM.

**Q.** What about the TGI (DU-145 prostate) of the same molecule?
**A.** Its TGI is 31.9 µM.

**Q.** What about the TGI (EKVX NSCLC) of the same molecule?
**A.** The TGI was 31.3 µM.

**Q.** What about the TGI (HCC-2998 colon) of the same molecule?
**A.** The TGI was 30.4 µM.

**Q.** And the TGI (HCT-116 colon)?
**A.** The TGI was 22 µM.

**Q.** What about the TGI (HCT-15 colon) of the same molecule?
**A.** Its TGI is 41.6 µM.

**Q.** And the TGI (HL-60(TB) leukemia)?
**A.** Its TGI is 8.15 µM.

**Q.** And the TGI (HOP-62 NSCLC)?
**A.** The TGI was 30.8 µM.

**Q.** And the TGI (HOP-92 NSCLC)?
**A.** Its TGI is 24 µM.

**Q.** And the TGI (HS 578T breast)?
**A.** Its TGI is 42.2 µM.

**Q.** And the TGI (HT29 colon)?
**A.** The TGI was 24.8 µM.

**Q.** And the TGI (IGROV1 ovarian)?
**A.** Its TGI is 30.9 µM.

**Q.** What about the TGI (K-562 leukemia) of the same molecule?
**A.** The TGI was 44.6 µM.

**Q.** And the TGI (KM12 colon)?
**A.** The TGI was 40.4 µM.

**Q.** And the TGI (LOX IMVI melanoma)?
**A.** The TGI was 34.4 µM.

**Q.** What about the TGI (M14 melanoma) of the same molecule?
**A.** The TGI was 31 µM.

**Q.** What about the TGI (MALME-3M melanoma) of the same molecule?
**A.** Its TGI is 34.6 µM.

**Q.** What about the TGI (MCF7 breast) of the same molecule?
**A.** Its TGI is 38.7 µM.

**Q.** And the TGI (MDA-MB-231 breast)?
**A.** Its TGI is 33.6 µM.

**Q.** What about the TGI (MDA-MB-435) of the same molecule?
**A.** Its TGI is 28.9 µM.

**Q.** What about the TGI (MDA-N) of the same molecule?
**A.** Its TGI is 26.9 µM.

**Q.** And the TGI (MOLT-4 leukemia)?
**A.** The TGI was 24.8 µM.

**Q.** And the TGI (NCI-H23 lung)?
**A.** Its TGI is 32.1 µM.

**Q.** What about the TGI (NCI-H460 lung) of the same molecule?
**A.** The TGI was 19.9 µM.

**Q.** What about the TGI (NCI-H522 lung) of the same molecule?
**A.** The TGI was 32.2 µM.

**Q.** And the TGI (NCI/ADR-RES ovarian)?
**A.** Its TGI is 48.1 µM.

**Q.** What about the TGI (OVCAR-3 ovarian) of the same molecule?
**A.** The TGI was 30.5 µM.

**Q.** What about the TGI (OVCAR-4 ovarian) of the same molecule?
**A.** Its TGI is 26.9 µM.

**Q.** And the TGI (OVCAR-5 ovarian)?
**A.** The TGI was 27 µM.

**Q.** What about the TGI (OVCAR-8 ovarian) of the same molecule?
**A.** The TGI was 41.4 µM.

**Q.** And the TGI (PC-3 prostate)?
**A.** The TGI was 33.9 µM.

**Q.** What about the TGI (RPMI-8226 leukemia) of the same molecule?
**A.** The TGI was 52.8 µM.

**Q.** What about the TGI (RXF 393 renal) of the same molecule?
**A.** The TGI was 28.3 µM.

**Q.** And the TGI (SF-268 CNS)?
**A.** Its TGI is 34.6 µM.

**Q.** And the TGI (SF-295 CNS)?
**A.** The TGI was 26.3 µM.

**Q.** And the TGI (SF-539 CNS)?
**A.** Its TGI is 37.3 µM.

**Q.** And the TGI (SK-MEL-2 melanoma)?
**A.** Its TGI is 34.5 µM.

**Q.** What about the TGI (SK-MEL-28 melanoma) of the same molecule?
**A.** Its TGI is 37 µM.

**Q.** And the TGI (SK-MEL-5 melanoma)?
**A.** The TGI was 28.1 µM.

**Q.** What about the TGI (SK-OV-3 ovarian) of the same molecule?
**A.** The TGI was 31.7 µM.

**Q.** What about the TGI (SN12C renal) of the same molecule?
**A.** Its TGI is 34.5 µM.

**Q.** And the TGI (SNB-19 CNS)?
**A.** The TGI was 31.3 µM.

**Q.** And the TGI (SNB-75 CNS)?
**A.** Its TGI is 33.5 µM.

**Q.** And the TGI (SW-620 colon)?
**A.** The TGI was 36.2 µM.

**Q.** What about the TGI (T-47D breast) of the same molecule?
**A.** The TGI was 35.2 µM.

**Q.** What about the TGI (TK-10 renal) of the same molecule?
**A.** The TGI was 29.2 µM.

**Q.** What about the TGI (U251 CNS) of the same molecule?
**A.** The TGI was 34.6 µM.

**Q.** What about the TGI (UACC-257 melanoma) of the same molecule?
**A.** The TGI was 27.4 µM.

**Q.** What about the TGI (UACC-62 melanoma) of the same molecule?
**A.** Its TGI is 26.7 µM.

**Q.** And the TGI (UO-31 renal)?
**A.** Its TGI is 36.4 µM.

**Q.** What does the source list for `CC1(C)Cc2c(c3ccccc3c3nc4c(nc23)c2c(c3ccccc34)OC(C)(C)C2)O1`?
**A.** TGI (786-0 renal): > 100 µM; TGI (A498 renal): > 100 µM; TGI (A549 NSCLC): > 100 µM; TGI (ACHN renal): > 100 µM; TGI (BT-549 breast): > 100 µM; TGI (CAKI-1 renal): > 100 µM; TGI (CCRF-CEM leukemia): > 100 µM; TGI (COLO 205 colon): > 100 µM; TGI (DU-145 prostate): > 100 µM; TGI (EKVX NSCLC): > 100 µM; TGI (HCC-2998 colon): > 100 µM; TGI (HCT-116 colon): > 100 µM; TGI (HCT-15 colon): > 100 µM; TGI (HL-60(TB) leukemia): > 100 µM; TGI (HOP-62 NSCLC): > 100 µM; TGI (HOP-92 NSCLC): > 100 µM; TGI (HS 578T breast): > 100 µM; TGI (HT29 colon): > 100 µM; TGI (IGROV1 ovarian): > 100 µM; TGI (KM12 colon): > 100 µM; TGI (LOX IMVI melanoma): > 100 µM; TGI (M14 melanoma): > 100 µM; TGI (MALME-3M melanoma): > 100 µM; TGI (MCF7 breast): > 100 µM; TGI (MDA-MB-231 breast): > 100 µM; TGI (MDA-MB-435): > 100 µM; TGI (MDA-N): > 100 µM; TGI (MOLT-4 leukemia): > 100 µM; TGI (NCI-H23 lung): > 100 µM; TGI (NCI-H460 lung): > 100 µM; TGI (NCI-H522 lung): > 100 µM; TGI (NCI/ADR-RES ovarian): > 100 µM; TGI (OVCAR-3 ovarian): > 100 µM; TGI (OVCAR-4 ovarian): > 100 µM; TGI (OVCAR-5 ovarian): > 100 µM; TGI (OVCAR-8 ovarian): > 100 µM; TGI (PC-3 prostate): > 100 µM; TGI (RPMI-8226 leukemia): > 100 µM; TGI (RXF 393 renal): > 100 µM; TGI (SF-268 CNS): > 100 µM; TGI (SF-295 CNS): > 100 µM; TGI (SF-539 CNS): > 100 µM; TGI (SK-MEL-2 melanoma): > 100 µM; TGI (SK-MEL-28 melanoma): > 100 µM; TGI (SK-MEL-5 melanoma): > 100 µM; TGI (SK-OV-3 ovarian): > 100 µM; TGI (SN12C renal): > 100 µM; TGI (SNB-19 CNS): > 100 µM; TGI (SW-620 colon): > 100 µM; TGI (T-47D breast): > 100 µM; TGI (TK-10 renal): > 100 µM; TGI (U251 CNS): > 100 µM; TGI (UACC-257 melanoma): > 100 µM; TGI (UACC-62 melanoma): > 100 µM
